Assay results: patent publication US9981945B2, “Pyrimidine derivatives as CFTR modulators” (NuBridge BioSciences, priority 2015, dated 2018)

Target: T1, ΔF508 mutant CFTR (Homo sapiens, UniProt P13569, DEL508-508)
T1 construct: expressed in transfected cells; host or cells: Fischer rat thyroid (FRT) cells
Assay: Fluorescence (YFP halide quenching) assay of ΔF508 mutant CFTR activity in FRT cells
Assay type: cell-based
Design: key: fold of mean activity with forskolin alone (I− quenching rate)
Conditions: FRT cells expressing ΔF508-CFTR and YFP-H148Q/I152L, rescued at 27° C. 20-24 h; forskolin 20 μM + test compound 20 μM for 20 min; I− influx rate normalized to forskolin alone
Text: The ΔF508 mutant CFTR activities of the CFTR modulators are detected using the Fluorescence Assay developed by Pedemonte (Pedemonte N., et al., Antihypertensive 1,4-dihydropyridines as correctors of the cystic fibrosis transmembrane conductance regulator channel gating defect caused by cystic fibrosis mutations, Mol. Pharmacol., 2005, 68, 1736-1746).
Fischer rat thyroid (FRT) cells, stably transfected with ΔF508 were retransfected with the YFP-H148Q/I152L fluorescent protein. The cells were plated (100,000 cells/well) on black 96-well microplates with clear plastic bottom (Corning Life Sciences, Acton, Mass.).
The 96-well microplates containing FRT cells expressing F508-CFTR and the halide-sensitive YFP were incubated at 27° C. for 20 to 24 h to allow rescue of the mutant protein to the plasma membrane. After incubation, cells were washed with PBS (containing 137 mM NaCl, 2.7 mM KCl, 8.1 mM Na2HPO4, 1.5 mM KH2PO4, 1 mM CaCl2, and 0.5 mM MgCl2) and stimulated for 20 min with forskolin (20 μM) and test compounds (20 μM) in a final volume of 60 μl. Microplates were then transferred to a microplate reader for CFTR activity determination. Each assay consisted of a continuous 14-s fluorescence reading (5 points per second) with 2 s before and 12 s after injection of 165 μl of an iodide-containing solution (PBS with Cl^− replaced by I^−). Final iodide concentration in the wells was 100 mM. […] To determine I^− influx rate, the final 11 s of the data for each well were fitted with an exponential function to extrapolate initial slope. CFTR activity was determined by measuring the rate of fluorescence quenching induced by extracellular addition of I^−. Data are normalized to the mean activity measured in the presence of forskolin alone.

T1 sequence (P13569 with tags, fused parts or gaps DEL508-508): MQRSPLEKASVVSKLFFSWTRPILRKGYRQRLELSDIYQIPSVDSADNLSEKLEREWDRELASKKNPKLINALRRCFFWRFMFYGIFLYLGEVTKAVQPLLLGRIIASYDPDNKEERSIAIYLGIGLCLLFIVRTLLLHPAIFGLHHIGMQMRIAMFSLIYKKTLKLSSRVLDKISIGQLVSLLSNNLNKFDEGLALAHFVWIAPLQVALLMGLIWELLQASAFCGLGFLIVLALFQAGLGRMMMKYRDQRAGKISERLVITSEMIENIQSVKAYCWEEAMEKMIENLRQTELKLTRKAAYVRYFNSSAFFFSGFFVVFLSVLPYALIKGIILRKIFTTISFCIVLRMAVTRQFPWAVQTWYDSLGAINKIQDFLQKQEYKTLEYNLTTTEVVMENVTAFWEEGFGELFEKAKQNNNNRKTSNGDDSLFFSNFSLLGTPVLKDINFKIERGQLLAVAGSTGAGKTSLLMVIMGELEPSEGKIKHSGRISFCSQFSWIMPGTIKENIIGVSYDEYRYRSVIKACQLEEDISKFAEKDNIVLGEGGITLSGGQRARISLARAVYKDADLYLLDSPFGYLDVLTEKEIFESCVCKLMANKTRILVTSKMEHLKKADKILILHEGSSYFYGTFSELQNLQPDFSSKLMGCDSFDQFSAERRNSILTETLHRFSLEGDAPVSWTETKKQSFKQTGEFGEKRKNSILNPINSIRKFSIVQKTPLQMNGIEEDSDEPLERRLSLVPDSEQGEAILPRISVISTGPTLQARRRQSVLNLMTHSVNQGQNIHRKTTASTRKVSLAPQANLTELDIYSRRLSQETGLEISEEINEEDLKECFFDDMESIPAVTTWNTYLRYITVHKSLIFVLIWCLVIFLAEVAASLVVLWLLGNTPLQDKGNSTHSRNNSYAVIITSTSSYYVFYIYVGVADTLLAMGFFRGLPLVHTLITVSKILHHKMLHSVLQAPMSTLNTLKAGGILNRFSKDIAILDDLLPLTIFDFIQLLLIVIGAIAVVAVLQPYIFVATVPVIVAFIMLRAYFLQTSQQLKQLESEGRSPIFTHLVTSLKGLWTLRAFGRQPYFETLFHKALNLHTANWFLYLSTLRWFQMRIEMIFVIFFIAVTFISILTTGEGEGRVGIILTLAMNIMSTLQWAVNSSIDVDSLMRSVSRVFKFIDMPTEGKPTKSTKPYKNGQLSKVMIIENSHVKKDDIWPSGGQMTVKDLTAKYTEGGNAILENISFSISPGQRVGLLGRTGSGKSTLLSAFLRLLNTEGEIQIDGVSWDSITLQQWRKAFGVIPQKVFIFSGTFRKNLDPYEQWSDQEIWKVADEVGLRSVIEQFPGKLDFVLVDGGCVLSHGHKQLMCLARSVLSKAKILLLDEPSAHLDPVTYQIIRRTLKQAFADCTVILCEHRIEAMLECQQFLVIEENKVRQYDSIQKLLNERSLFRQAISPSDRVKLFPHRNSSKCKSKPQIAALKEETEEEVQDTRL

Structure (SMILES)	CFTR Activity
Cl.O=C(Nc1cncnc1OCC1CCNCC1)c1ccc(F)c(-c2c(F)cccc2F)n1 [Example 1, 6-(2,6-difluorophenyl)-5-fluoro-N-(4-(piperidin-4-ylmethoxy)pyrimidin-5-yl)picolinamide hydrochloride]	1.2
Cl.O=C(Nc1cncnc1OCC1CNC1)c1ccc(F)c(-c2c(F)cccc2F)n1 [Example 2, N-(4-(azetidin-3-ylmethoxy)pyrimidin-5-yl)-6-(2,6-difluorophenyl)-5-fluoropicolinamide hydrochloride]	0.5
Cl.O=C(Nc1cncnc1OC1CCNCC1)c1ccc(F)c(-c2c(F)cccc2F)n1 [Example 3, 6-(2,6-difluorophenyl)-5-fluoro-N-(4-(piperidin-4-yloxy)pyrimidin-5-yl)picolinamide hydrochloride]	1.3
Cl.O=C(Nc1cncnc1OC1CCNC1)c1ccc(F)c(-c2c(F)cccc2F)n1 (centres unmarked) [Example 4, 6-(2,6-difluorophenyl)-5-fluoro-N-(4-(pyrrolidin-3-yloxy)pyrimidin-5-yl)picolinamide hydrochloride]	0.7
Cl.O=C(Nc1cncnc1OC1CCCNC1)c1ccc(F)c(-c2c(F)cccc2F)n1 (centres unmarked) [Example 5, 6-(2,6-difluorophenyl)-5-fluoro-N-(4-(piperidin-3-yloxy)pyrimidin-5-yl)picolinamide hydrochloride]	0.6
Cl.O=C(Nc1cncnc1OC1CCCNCC1)c1ccc(F)c(-c2c(F)cccc2F)n1 (centres unmarked) [Example 6, N-(4-(azepan-4-yloxy)pyrimidin-5-yl)-6-(2,6-difluorophenyl)-5-fluoropicolinamide hydrochloride]	1.9
Cl.O=C(Nc1cncnc1OCC1CCCNC1)c1ccc(F)c(-c2c(F)cccc2F)n1 (centres unmarked) [Example 7, 6-(2,6-difluorophenyl)-5-fluoro-N-(4-(piperidin-3-ylmethoxy)pyrimidin-5-yl)picolinamide hydrochloride]	0.5
Cl.O=C(Nc1cncnc1OCC1CCNC1)c1ccc(F)c(-c2c(F)cccc2F)n1 (centres unmarked) [Example 8, 6-(2,6-difluorophenyl)-5-fluoro-N-(4-(pyrrolidin-3-ylmethoxy)pyrimidin-5-yl)picolinamide hydrochloride]	0.6
Cl.O=C(Nc1cncnc1OC1CNC1)c1ccc(F)c(-c2c(F)cccc2F)n1 [Example 9, N-(4-(azetidin-3-yloxy)pyrimidin-5-yl)-6-(2,6-difluorophenyl)-5-fluoropicolinamide hydrochloride]	0.4
Cl.NC1CCC(Oc2ncncc2NC(=O)c2ccc(F)c(-c3c(F)cccc3F)n2)CC1 (centres unmarked) [Example 10, N-(4-(((1r,4r)-4-aminocyclohexyl)oxy)pyrimidin-5-yl)-6-(2,6-difluorophenyl)-5-fluoropicolinamide hydrochloride]	1.9
Cl.NC1CCCC(Oc2ncncc2NC(=O)c2ccc(F)c(-c3c(F)cccc3F)n2)C1 (centres unmarked) [Example 11, N-(4-((3-aminocyclohexyl)oxy)pyrimidin-5-yl)-6-(2,6-difluorophenyl)-5-fluoropicolinamide hydrochloride]	3.0
Cl.NCCCOc1ncncc1NC(=O)c1ccc(F)c(-c2c(F)cccc2F)n1 [Example 12, N-(4-(3-aminopropoxy)pyrimidin-5-yl)-6-(2,6-difluorophenyl)-5-fluoropicolinamide hydrochloride]	0.7
CNCCCOc1ncncc1NC(=O)c1ccc(F)c(-c2c(F)cccc2F)n1.Cl [Example 13, 6-(2,6-difluorophenyl)-5-fluoro-N-(4-(3-(methylamino)propoxy)pyrimidin-5-yl)picolinamide hydrochloride]	0.5
CN(C)CCCOc1ncncc1NC(=O)c1ccc(F)c(-c2c(F)cccc2F)n1.Cl [Example 14, 6-(2,6-difluorophenyl)-N-(4-(3-(dimethylamino)propoxy)pyrimidin-5-yl)-5-fluoropicolinamide hydrochloride]	0.2
